Data taken from ChEMBL document CHEMBL1148573, “Design, synthesis, and binding affinities of potential positron emission tomography (PET) ligands for visualization of brain dopamine D3 receptors” (J Med Chem, 2006).

Experiments:
D(2) dopamine receptor = D(2) dopamine receptor (Homo sapiens, UniProt P14416); experiment: biochemical
Description: Displacement of [3H]spiroperidol from cloned human dopamine receptor D2(long) expressed in rat C6 glioma cells

D(3) dopamine receptor = D(3) dopamine receptor (Homo sapiens, UniProt P35462); experiment: biochemical
Description: Displacement of [3H]spiroperidol from cloned human dopamine receptor D3 expressed in CHO cells

[1] = Partition coefficient measured; format: physicochemical; conditions: octanol/water
[2] = Apparent permeability assessed by Caco-2 layer assay; format: ADME, cell-based; conditions: human
[3] = Distribution coefficient at pH 7.4; format: physicochemical; conditions: octanol/water

Sequence of D(3) dopamine receptor (P35462 whole entry): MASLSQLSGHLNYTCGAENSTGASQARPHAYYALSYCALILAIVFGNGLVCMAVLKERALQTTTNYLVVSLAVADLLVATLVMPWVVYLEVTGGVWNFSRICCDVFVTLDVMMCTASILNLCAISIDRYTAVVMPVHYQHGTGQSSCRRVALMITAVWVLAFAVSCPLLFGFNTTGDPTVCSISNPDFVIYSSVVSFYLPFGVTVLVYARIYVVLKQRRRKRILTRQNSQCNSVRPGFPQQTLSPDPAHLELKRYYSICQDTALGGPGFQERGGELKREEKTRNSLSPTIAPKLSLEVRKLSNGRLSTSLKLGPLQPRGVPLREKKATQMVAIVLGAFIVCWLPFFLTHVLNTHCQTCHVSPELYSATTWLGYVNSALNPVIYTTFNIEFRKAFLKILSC
Sequence of D(2) dopamine receptor (P14416 whole entry): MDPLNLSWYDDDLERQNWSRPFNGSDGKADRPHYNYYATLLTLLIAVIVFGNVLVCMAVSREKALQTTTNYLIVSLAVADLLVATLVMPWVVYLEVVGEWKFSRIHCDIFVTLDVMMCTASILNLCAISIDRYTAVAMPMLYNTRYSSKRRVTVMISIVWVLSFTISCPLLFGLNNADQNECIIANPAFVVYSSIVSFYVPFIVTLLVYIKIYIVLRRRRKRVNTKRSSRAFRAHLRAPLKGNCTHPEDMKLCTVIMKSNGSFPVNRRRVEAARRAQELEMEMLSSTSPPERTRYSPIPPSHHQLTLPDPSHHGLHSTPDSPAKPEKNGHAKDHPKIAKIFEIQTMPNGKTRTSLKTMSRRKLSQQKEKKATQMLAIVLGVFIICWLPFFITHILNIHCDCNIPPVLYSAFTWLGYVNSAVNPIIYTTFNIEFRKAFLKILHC

Ki (D(2) dopamine receptor) [nM]	Ki (D(3) dopamine receptor) [nM]	Compound	logP [1]	Papp [2] [×10⁻⁶ cm/s]	logD [3]
146	60.1	COc1ccccc1N1CCN(CCCCNC(=O)c2cc3ccccc3oc2=O)CC1			
> 750	38	COc1ccc2onc(N3CCN(CCCCNC(=O)c4ccc(N5CCOCC5)cc4)CC3)c2c1	3.16	36.3	2.96
> 1000	1140	COc1ccc2onc(N3CCN(CCCCNC(=O)c4cccc(-c5ncccn5)c4)CC3)c2c1			
> 750	98	COc1ccc2onc(N3CCN(CCCCNC(=O)c4cc5cccc(OC)c5o4)CC3)c2c1			
> 1000	1440	COc1ccc2onc(N3CCN(CCCCNC(=O)c4cccc(N5CCOCC5)c4)CC3)c2c1			
179	77.9	COc1ccccc1N1CCN(CCCCNC(=O)c2ccc3nccnc3c2)CC1			
> 750	220	COc1ccc2onc(N3CCN(CCCCNC(=O)c4ccc5nccnc5c4)CC3)c2c1			
> 750	118	COc1ccc2onc(N3CCN(CCCCNC(=O)c4ccc5c(c4)OCO5)CC3)c2c1			
> 750	> 8500	COc1cccc2cc(C(=O)NCCCCN3CCN(c4nc5ccccc5[nH]4)CC3)oc12			
	102	COc1ccc2ccnc(N3CCN(CCCCNC(=O)c4cc5cccc(OC)c5o4)CC3)c2c1			
27.2	4.79	COc1ccccc1N1CCN(CCCCNC(=O)c2ccc(-n3ccnc3)cc2)CC1			
> 750	> 2700	COc1ccc2onc(N3CCN(CCCCNC(=O)c4cc5ccccc5oc4=O)CC3)c2c1			
1250	262	COc1cccc2cc(C(=O)NCCCCN3CCN(c4cccc5nccnc45)CC3)oc12			
86.2	14.7	COc1ccccc1N1CCN(CCCCNC(=O)c2ccc3c(c2)OCO3)CC1			
369	25.5	COc1ccccc1N1CCN(CCCCNC(=O)c2cc3cccc(OC)c3o2)CC1			
56.6	127	COc1cccc2cc(C(=O)NCCCCN3CCN(c4[nH]nc5ccccc45)CC3)oc12			
> 750	> 8500	COc1ccc2oc(N3CCN(CCCCNC(=O)c4cc5cccc(OC)c5o4)CC3)nc2c1			
> 750	85	COc1ccc2onc(N3CCN(CCCCNC(=O)c4ccc5nonc5c4)CC3)c2c1			
> 1000	58.5	COc1ccccc1N1CCN(CCCCNC(=O)c2ccc3nonc3c2)CC1			
> 1000	1280	COc1ccc2onc(N3CCN(CCCCNC(=O)c4cccc(-c5noc(C)n5)c4)CC3)c2c1			
> 1000	5540	COc1ccc2onc(N3CCN(CCCCNC(=O)c4cccc(-n5ccnc5)c4)CC3)c2c1			

Compound	Ki (D(2) dopamine receptor) [nM]	Ki (D(3) dopamine receptor) [nM]	logP [1]	Papp [2] [×10⁻⁶ cm/s]	logD [3]
COc1ccc2onc(N3CCN(CCCCNC(=O)c4ccc(-n5ccnc5)cc4)CC3)c2c1	> 750	22.6	2.63	6.56	2.42
COc1ccc2onc(N3CCN(CCCCNC(=O)c4cc(-c5ccco5)n[nH]4)CC3)c2c1	> 750	21.4	2.98	7.39	2.43
COc1ccccc1N1CCN(CCCCNC(=O)c2cc(-c3ccco3)[nH]n2)CC1	130	19.3			
COc1ccccc1N1CCN(CCCCNC(=O)c2ccc(N3CCOCC3)cc2)CC1	141	23.9			
